How the values were obtained:
[1] = test system: human foreskin fibroblasts (HFF); experiment: Fibroblast proliferation assay; type: cell-based; details: HFF, day 2; for inhibition at 1 µM / inhibition at 0.05 µM / inhibition at 0.1 µM / inhibition at 0.5 µM / inhibition at 5 µM / inhibition at 10 µM: Homo sapiens, 48 h, read-out: Percent Inhibition of Cells Per Concentration of Test Compound; for inhibition at 0.05 µM / inhibition at 0.1 µM / inhibition at 0.5 µM / inhibition at 5 µM / inhibition at 10 µM: Fibroblast
Protocol: Fibroblasts obtained from the same tissue were grown in monolayer culture using Dulbecco's modified minimal essential medium supplemented with nonessential amino acids and 10% fetal bovine serum (DMEM-FBS) as culture medium. Both keratinocytes and fibroblasts were maintained at 37° C. in an atmosphere of 95% air and 5% CO2. Cells were subcultured by exposure to trypsin/ethylenediamine tetraacetic acid (EDTA) and used at passage 2-4.
(§1) Keratinocyte proliferation was assessed by seeding 4×10^4 cells per well in a 24-well plate using KGM as culture medium. After the cells had attached (overnight), they were washed and triplicate samples were harvested for zero-time counts. DMSO served as a negative control. Proliferation was measured on day 2 by releasing the cells with trypsin/EDTA and enumerating them using a particle counter (Coulter Electronics, Hialeah, Fla.). Fibroblast proliferation studies were conducted in a similar manner except that […] was used as culture medium.
(§2) KC refers to human keratinocytes. HFF refers to human foreskin fibroblasts. The cLogP values were calculated using ChemDraw™ (CambridgeSoft).

human keratinocytes (KC) = experiment: Keratinocyte proliferation assay; type: cell-based; details: KC, day 2; for inhibition at 0.05 µM / inhibition at 0.1 µM / inhibition at 0.5 µM / inhibition at 1 µM / inhibition at 5 µM / inhibition at 10 µM: Homo sapiens, Keratinocyte, 48 h, read-out: Percent Inhibition of Cells Per Concentration of Test Compound
Protocol: Epidermal keratinocytes were isolated from fresh tissue biopsies as described previously (Varani et al., (1994) J. Clin. Invest. 94:1747-1753). Primary and early passage cells were maintained in Keratinocyte Growth Medium (KGM) (Lonza). KGM contains the same basal medium as KBM but is further supplemented with a mixture of growth factors including 0.1 ng per mL EGF, 0.5 μg per mL insulin, and 0.4% bovine pituitary extract. In addition to using low-passage keratinocytes, we also used the HaCat line of immortalized human epidermal keratinocytes in some experiments. The immortalized keratinocytes were handled exactly as low-passage keratinocytes.
as §1, §2

Structure (SMILES)	inhibition at 1 µM ([1]; 1 μM) [%]	inhibition at 0.05 µM ([1]; 0.05 μM) [%]	inhibition at 0.1 µM ([1]; 0.1 μM) [%]	inhibition at 0.5 µM ([1]; 0.5 μM) [%]	inhibition at 5 µM ([1]; 5 μM) [%]	inhibition at 10 µM ([1]; 10 μM) [%]	inhibition at 0.05 µM (human keratinocytes (KC); 0.05 μM) [%]	inhibition at 0.1 µM (human keratinocytes (KC); 0.1 μM) [%]	inhibition at 0.5 µM (human keratinocytes (KC); 0.5 μM) [%]	inhibition at 1 µM (human keratinocytes (KC); 1 μM) [%]	inhibition at 5 µM (human keratinocytes (KC); 5 μM) [%]	inhibition at 10 µM (human keratinocytes (KC); 10 μM) [%]	other results
CCc1cccc(CC)c1CC1N=C(c2ccc(O)cc2)c2cc(Cl)ccc2NC1=O (stereo not drawn) [Compound 3, (Z)-3-(2,6-Diethylbenzyl)-7-chloro-5-(4-hydroxyphenyl)-1H-benzo[e][1,4]diazepin-2(3H)-one]	< 20	< 20	< 20	< 20	≥ 90	≥ 90	< 20	< 20	< 20	≥ 20	≥ 90	≥ 90	–
CC(C)c1ccc(CC2N=C(c3ccc(O)cc3)c3cc(Cl)ccc3N(C)C2=O)cc1 (stereo not drawn) [Compound 8, (Z)-3-(4-Isopropylbenzyl)-7-chloro-5-(4-hydroxyphenyl)-1-methyl-1H-benzo[e][1,4]diazepin-2(3H)-one]	< 20	< 20	< 20	< 20	≥ 90	≥ 90	< 20	< 20	≥ 20	≥ 20	≥ 90	≥ 90	–
CCc1ccc(CC2N=C(c3ccc(O)cc3)c3cc(Cl)ccc3N(C)C2=O)cc1CC (stereo not drawn) [Compound 4, (Z)-3-(3,4-Diethylbenzyl)-7-chloro-5-(4-hydroxyphenyl)-1-methyl-11H-benzo[e][1,4]diazepin-2(3H)-one]	–	–	–	–	–	–	–	–	–	–	–	–	Percent Inhibition of Cells Per Concentration of Test Compound ([1]; 0.05 μM): <20%; Percent Inhibition of Cells Per Concentration of Test Compound ([1]; 0.1 μM): <20%; Percent Inhibition of Cells Per Concentration of Test Compound ([1]; 0.5 μM): <20%; Percent Inhibition of Cells Per Concentration of Test Compound ([1]; 1 μM): <20%; Percent Inhibition of Cells Per Concentration of Test Compound ([1]; 5 μM): ≧90%; Percent Inhibition of Cells Per Concentration of Test Compound ([1]; 10 μM): ≧90%; Percent Inhibition of Cells Per Concentration of Test Compound (human keratinocytes (KC); 0.05 μM): <20%; Percent Inhibition of Cells Per Concentration of Test Compound (human keratinocytes (KC); 0.1 μM): <20%; Percent Inhibition of Cells Per Concentration of Test Compound (human keratinocytes (KC); 0.5 μM): <20%; Percent Inhibition of Cells Per Concentration of Test Compound (human keratinocytes (KC); 1 μM): ≧20%; Percent Inhibition of Cells Per Concentration of Test Compound (human keratinocytes (KC); 5 μM): ≧90%; Percent Inhibition of Cells Per Concentration of Test Compound (human keratinocytes (KC); 10 μM): ≧90%
CC(C)c1ccc(CC2N=C(c3ccc(O)cc3)c3cc(Cl)ccc3NC2=O)cc1 (stereo not drawn) [Compound 7, (Z)-3-(4-Isopropylbenzyl)-7-chloro-5-(4-hydroxyphenyl)-1H-benzo[e][1,4]diazepin-2(3H)-one]	≥ 20	< 20	< 20	< 20	≥ 90	≥ 90	< 20	< 20	< 20	≥ 20	≥ 90	≥ 90	–
CC(C)c1ccc(C(C)C)c(CC2N=C(c3ccc(O)cc3)c3cc(Cl)ccc3N(C)C2=O)c1 (stereo not drawn) [Compound 10, (Z)-3-(2,5-Diisopropylbenzyl)-7-chloro-5-(4-hydroxyphenyl)-1-methyl-1H-benzo[e][1,4]diazepin-2(3H)-one]	< 20	< 20	< 20	< 20	≥ 90	≥ 90	< 20	< 20	< 20	≥ 20	≥ 90	≥ 90	–
CCc1cc(CC)cc(CC2N=C(c3ccc(O)cc3)c3cc(Cl)ccc3NC2=O)c1 (stereo not drawn) [Compound 5, (Z)-3-(3,5-Diethylbenzyl)-7-chloro-5-(4-hydroxyphenyl)-1H-benzo[e][1,4]diazepin-2(3H)-one]	< 20	< 20	< 20	< 20	≥ 90	≥ 90	< 20	< 20	≥ 20	≥ 20	≥ 90	≥ 90	–
CC(C)c1ccc(C(C)C)c(CC2N=C(c3ccc(O)cc3)c3cc(Cl)ccc3NC2=O)c1 (stereo not drawn) [Compound 9, (Z)-3-(2,5-Diisopropylbenzyl)-7-chloro-5-(4-hydroxyphenyl)-1H-benzo[e][1,4]diazepin-2(3H)-one]	< 20	< 20	< 20	< 20	≥ 90	≥ 90	< 20	< 20	≥ 20	≥ 20	≥ 90	≥ 90	–
Cc1cc(C)cc(CC2N=C(c3ccc(O)cc3)c3cc(Cl)ccc3N(C)C2=O)c1 (stereo not drawn) [Compound 2, (Z)-3-(3,5-Dimethylbenzyl)-7-chloro-5-(4-hydroxyphenyl)-1-methyl-1H-benzo[e][1,4]diazepin-2(3H)-one]	< 20	< 20	< 20	< 20	≥ 90	≥ 90	< 20	< 20	≥ 20	≥ 20	≥ 90	≥ 90	–
CCc1cc(CC)cc(CC2N=C(c3ccc(O)cc3)c3cc(Cl)ccc3N(C)C2=O)c1 (stereo not drawn) [Compound 6, (Z)-3-(3,5-Diethylbenzyl)-7-chloro-5-(4-hydroxyphenyl)-1-methyl-1H-benzo[e][1,4]diazepin-2(3H)-one]	< 20	< 20	< 20	< 20	≥ 90	≥ 90	< 20	< 20	< 20	< 20	≥ 90	≥ 90	–
